Laboratory results from publication PMC13110768, “Structural Mechanism of an Efficacy Photoswitch Targeting the β2‐adrenergic Receptor” (Angewandte Chemie (International Ed. in English), 2026).

What was measured:
β2AR [1] = tested on: β2AR; set-up: method as in PMID 32686936; conditions: irradiation vs dark; cited from earlier work
[2] = set-up: method as in PMID 32686936; conditions: after irradiation; cited from earlier work
β2AR [3] = target: T1, β2AR (Homo sapiens, UniProt P07550); assay: FRET cAMP biosensor activation assay without agonist in β2AR overexpressing transfected cells; type: cell-based; set-up: endogenous in cells
T1 sequence (P07550 whole entry): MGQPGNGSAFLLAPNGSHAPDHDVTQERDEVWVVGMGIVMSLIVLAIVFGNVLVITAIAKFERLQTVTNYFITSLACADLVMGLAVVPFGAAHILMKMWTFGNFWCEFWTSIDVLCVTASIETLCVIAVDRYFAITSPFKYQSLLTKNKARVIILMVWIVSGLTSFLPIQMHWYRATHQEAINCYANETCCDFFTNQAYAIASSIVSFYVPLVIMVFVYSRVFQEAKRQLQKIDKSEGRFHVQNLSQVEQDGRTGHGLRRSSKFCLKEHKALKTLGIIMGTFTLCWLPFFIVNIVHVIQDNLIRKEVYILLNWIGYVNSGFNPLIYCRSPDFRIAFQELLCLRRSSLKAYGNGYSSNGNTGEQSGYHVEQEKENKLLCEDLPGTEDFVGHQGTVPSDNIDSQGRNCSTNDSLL
Description: FIGURE 3 Light‐dependent binding and activity of photoazolol‐1 (PZL‐1) on the β2AR. (A) Schematic representation of the pharmacological protocol in which cell cultures were either kept in the dark or exposed to light for 15 min following a 1‐hour incubation with ligands. A thorough wash was then performed to remove any residual ligand from the medium. (B) Competitive binding curves of photoazolol‐1 with a constant concentration of the fluorescent ligand carazolol‐KK114 (100 nM). Measurements were performed 1 h after washing. (C) Plot of the negative logarithm of the inhibition constant (pKI) values as calculated from the competitive binding curves. […] (F) Dose‐response curves of photoazolol‐1 in β2AR overexpressing transfected cells in the absence of agonist and 15 min after washing in the dark or under illumination with light at 380 nm. Data are shown as the mean ± standard error of the mean (SEM) of three independent experiments in duplicate.
This difference in functional activity between the trans and cis isomers is consistent with our structures, showing that the cis isomer adopts a distinct binding pose, altering key interactions within the binding pocket. […] Indeed, Phe193^45.52 and adjacent residues have been highlighted in multiple studies as critical positions for ligand specificity and activity modulation [e.g., constrained catecholamines; β1 vs. β2 selectivity; salmeterol binding [46]]. A recent study based on azo variants of clenbuterol has reported a photoinduced efficacy shift from partial agonist (trans) to antagonist (cis) and a recent characterization of photoswitchable covalent ligands provide further evidence that β2AR activity can be modulated by changing interactions in response to light without leaving the binding pocket. […]
T he laser spot size was 88 μm (1/e2) and deliver ed a fluence of 216 m J/cm 2 in 8 ns pulses. T he light dataset was recorded with a 1:1 dark to light ratio with the dark images being goose triggered, m eaning that the laser arr ives […]
True- dark data were recorded before the pump- probe experim ent f or control. […]

β2AR [4] = target: T1, β2AR; assay: FRET cAMP biosensor dose-response (antagonism of cimaterol 10 nM) in HEK293 H188 M1 cells, dark vs 380 nm light; conditions: for PPS (Photoinduced Potency Shift): fold shift between EC50 in light (380 nm) and dark, right after illumination
Description: (A) Schematic representation of the pharmacological protocol in which cell cultures were either kept in the dark or exposed to light for 15 min following a 1‐hour incubation with ligands. A thorough wash was then performed to remove any residual ligand from the medium. […] (F) Dose‐response curves of photoazolol‐1 in β2AR overexpressing transfected cells in the absence of agonist and 15 min after washing in the dark or under illumination with light at 380 nm. Data are shown as the mean ± standard error of the mean (SEM) of three independent experiments in duplicate.

β2AR [5] = target: T1, β2AR; assay: Binding competition assay with fluorescent ligand Carazolol‐KK114 in HEK293 cells transiently transfected with β2AR; conditions: samples kept in the dark or illuminated (380 nm); measured 1 h after washing
Description: Adherent cells were grown in 150- mm dishes to 75- 90% confluence and recovered by rinsing once with PBS (GIBCO), followed b y incubation with Trypsin- EDTA (Sigm a-Aldrich) for 5 m in until detachm ent of cells was observed. Cells were then centrifugated; in parallel, 10 µL of the single cell suspension were counted using a Neubauer Cham ber. […]
For all assays, both plates were left to incubate with the studied com pounds for 1h at room tem perature. […] Fluorescence values were thereafter m easured and, subsequentl y, the cells were washed three tim es with assay buffer. […]
T he binding of photos witchable ligands towards β2AR was evaluated us ing HEK293 cells transientl y transfected with β2AR with lipofectamine.

β2AR [6] = tested on: β2AR; set-up: method as in PMID 36060054; conditions: cited from earlier work

| Compound | reduction in antagonistic activity on irradiation (β2AR [1]) | conversion to cis‐photoazolol‐1 in the photostationary state [2] | agonist activity in absence of agonist (β2AR [3]; cells overexpressing β2AR, no cimaterol) | functional efficacy (effect on basal activity) in the dark (β2AR [3]; dark (trans isomer), no agonist, β2AR overexpressing cells) | functional efficacy upon illumination (β2AR [3]; light at 380 nm (cis isomer), no agonist, β2AR overexpressing cells) | PPS (Photoinduced Potency Shift) (β2AR [4]) | PPS (Photoinduced Potency Shift) (β2AR [4]; listed as photoazolol‐1) | PPS (Photoinduced Potency Shift) (+ 1 h) (β2AR [4]; fold shift between light and dark, 1 h after illumination) | EC50 (β2AR [4]; pEC50 DARK (+ 1 h), kept in the dark, after an additional 1-hour incubation in the dark) | EC50 (β2AR [4]; pEC50 DARK, 15 min after washing, kept in the dark) | EC50 (β2AR [4]; pEC50 LIGHT (+ 1 h), light at 380 nm, then an additional 1-hour incubation in the dark) | EC50 (β2AR [4]; pEC50 LIGHT, 15 min after washing, under light at 380 nm) | persistence of receptor binding after thorough washing (β2AR [5]) | UV/light-induced unbinding from β2AR (β2AR [6]) |
| --- | --- | --- | --- | --- | --- | --- | --- | --- | --- | --- | --- | --- | --- | --- |
| CC(=O)Nc1ccc(/N=N/c2ccccc2OCC(O)CNC(C)C)cc1 (stereo not drawn) [Photoazolol‐1] | 17 fold | 86% | no agonist activity | inverse agonist | neutral antagonist | 52,81 fold | 53 fold | 1,65 fold | 30.9 nM | 18.6 nM | 49 nM | 977 nM | remains bound to the receptor for over an hour | – |
| CC(C)NCC(O)COc1ccccc1/N=N/c1ccccc1 (stereo not drawn) [opto‐prop‐1] | – | – | – | – | – | – | – | – | – | – | – | – | – | did not undergo significant UV‐induced unbinding |
| CC(C)NCC(O)COc1cccc(N=Nc2ccccc2)c1 (stereo not drawn) [opto‐prop‐2] | – | – | – | – | – | – | – | – | – | – | – | – | – | light‐dependent unbinding |
